From patent publication US10150760B2, “Compounds for use in preparing heterocyclic triazole agonists of the APJ receptor” (AMGEN INC., priority 2016, dated 2018) come the findings set out here.

Chain of human APJ receptor (P35414 whole entry): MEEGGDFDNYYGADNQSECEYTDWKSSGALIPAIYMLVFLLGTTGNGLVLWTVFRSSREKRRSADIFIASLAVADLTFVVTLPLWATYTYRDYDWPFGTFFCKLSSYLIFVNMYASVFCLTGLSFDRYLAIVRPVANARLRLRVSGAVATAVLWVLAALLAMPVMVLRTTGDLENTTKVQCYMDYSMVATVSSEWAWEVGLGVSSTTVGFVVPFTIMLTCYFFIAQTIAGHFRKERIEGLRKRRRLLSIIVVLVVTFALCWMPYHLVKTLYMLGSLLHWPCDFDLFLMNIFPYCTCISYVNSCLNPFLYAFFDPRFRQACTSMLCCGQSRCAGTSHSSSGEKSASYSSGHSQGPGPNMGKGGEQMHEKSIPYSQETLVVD

The target in the assay is human APJ receptor (Homo sapiens (Human), UniProt P35414). The assay can be described thus: [35S]GTPγS binding assay on membranes from CHO cells stably expressing human APJ receptor. In kind it is biochemical. The note with it: read-out: Activity hAPJ SPA EC50 IP. How it is done:
The human APJ receptor was cloned by polymerase chain reaction and the gene encoding the receptor was subcloned in pFLAG-CMV™-3 expression vector (Sigma, Saint Louis, Mo. USA) in-house at Amgen. A GTPγS binding assay was performed on membranes prepared from CHO cells stably expressing human APJ receptor. The optimum experimental conditions for the concentrations of GDP, MgCl2, and NaCl in the assay buffer were initially determined. The assay was performed in assay buffer [20 mM HEPES, pH 7.5, 5 mM MgCl2, and 0.1% (w/v) BSA with 200 mM NaCl, 3 μM GDP] and membranes expressing human APJ receptor/well along with WGA PS beads. The reaction was initiated by addition of 0.2 nM [^35S]GTPγS (Perkin Elmer Life and Analytical Sciences, Waltham USA) in the absence or presence of various ligands and incubated at RT for 90 min. Nonspecific binding was determined in the presence of 100 μM GTPγS and was always less than 0.2% of total binding. All the results presented are means of several independent experiments and analyzed by non-linear regression methods using commercially available program Prism (GraphPad, San Diego, Calif.) to obtain EC50 detailed in Table 38.
For orientation: Binding of GTPγS marks nucleotide exchange on a G protein.
For `COc1cccc(OC)c1-n1c(NS(=O)(=O)[C@@H](C)[C@H](C)c2ncc(C)cn2)nnc1[C@H]1OCC[C@H]1C` (single isomer, unassigned) [Example 71.0, (2S,3R)-N-(4-(2,6-dimethoxyphenyl)-5-((2R,3S)-3-methyltetrahydrofuran-2-yl)-4H-1,2,4-triazol-3-yl)-3-(5-methylpyrimidin-2-yl)butane-2-sulfonamide or (2S,3R)-N-(4-(2,6-dimethoxyphenyl)-5-((2S,3R)-3-methyltetrahydrofuran-2-yl)-4H-1,2,4-triazol-3-yl)-3-(5-methylpyrimidin-2-yl)butane-2-sulfonamide], the EC50 (usually the concentration needed to bring the measured effect to its halfway point) came to 450 nM. With `COc1cccc(OC)c1-n1c(NS(=O)(=O)[C@@H](C)[C@H](C)c2ncc(Cl)cn2)nnc1[C@H]1OCC[C@H]1C` (single isomer, unassigned) [Example 75.0, (2S,3R)-3-(5-chloropyrimidin-2-yl)-N-(4-(2,6-dimethoxyphenyl)-5-((2R,3S)-3-methyltetrahydrofuran-2-yl)-4H-1,2,4-triazol-3-yl)butane-2-sulfonamide or (2S,3R)-3-(5-chloropyrimidin-2-yl)-N-(4-(2,6-dimethoxyphenyl)-5-((2S,3R)-3-methyltetrahydrofuran-2-yl)-4H-1,2,4-triazol-3-yl)butane-2-sulfonamide], the EC50 stood at 210 nM. `COc1cccc(OC)c1-n1c(NS(=O)(=O)[C@@H](C)[C@H](C)c2ncc(Cl)cn2)nnc1[C@H]1OCC[C@H]1C` (single isomer, unassigned) [Example 76.0, (2S,3R)-3-(5-chloropyrimidin-2-yl)-N-(4-(2,6-dimethoxyphenyl)-5-((2R,3S)-3-methyltetrahydrofuran-2-yl)-4H-1,2,4-triazol-3-yl)butane-2-sulfonamide or (2S,3R)-3-(5-chloropyrimidin-2-yl)-N-(4-(2,6-dimethoxyphenyl)-5-((2S,3R)-3-methyltetrahydrofuran-2-yl)-4H-1,2,4-triazol-3-yl)butane-2-sulfonamide]: the EC50 was 1.4 nM. Take `COc1ncnc(OC)c1-n1c(NS(=O)(=O)[C@@H](C)[C@H](OC)c2ncc(Cl)cn2)nnc1[C@H]1CCCO1` (single isomer, unassigned) [Example 79.0, (1R,2S)-1-(5-chloropyrimidin-2-yl)-N-(4-(4,6-dimethoxypyrimidin-5-yl)-5-((S)-tetrahydrofuran-2-yl)-4H-1,2,4-triazol-3-yl)-1-methoxypropane-2-sulfonamide or (1R,2S)-1-(5-chloropyrimidin-2-yl)-N-(4-(4,6-dimethoxypyrimidin-5-yl)-5-((R)-tetrahydrofuran-2-yl)-4H-1,2,4-triazol-3-yl)-1-methoxypropane-2-sulfonamide]: the EC50 was 110 nM. In the case of `COc1ncnc(OC)c1-n1c(NS(=O)(=O)[C@@H](C)[C@H](C)c2ncc(Cl)cn2)nnc1[C@H]1CCCO1` (single isomer, unassigned) [Example 81.0, (2S,3R)-3-(5-chloropyrimidin-2-yl)-N-(4-(4,6-dimethoxypyrimidin-5-yl)-5-((S)-tetrahydrofuran-2-yl)-4H-1,2,4-triazol-3-yl)butane-2-sulfonamide or (2S,3R)-3-(5-chloropyrimidin-2-yl)-N-(4-(4,6-dimethoxypyrimidin-5-yl)-5-((R)-tetrahydrofuran-2-yl)-4H-1,2,4-triazol-3-yl)butane-2-sulfonamide], the EC50 turned out to be 82 nM. As for `COc1ncnc(OC)c1-n1c(NS(=O)(=O)[C@@H](C)[C@H](C)c2ncc(Cl)cn2)nnc1[C@H]1CCCO1` (single isomer, unassigned) [Example 82.0, (2S,3R)-3-(5-chloropyrimidin-2-yl)-N-(4-(4,6-dimethoxypyrimidin-5-yl)-5-((S)-tetrahydrofuran-2-yl)-4H-1,2,4-triazol-3-yl)butane-2-sulfonamide or (2S,3R)-3-(5-chloropyrimidin-2-yl)-N-(4-(4,6-dimethoxypyrimidin-5-yl)-5-((R)-tetrahydrofuran-2-yl)-4H-1,2,4-triazol-3-yl)butane-2-sulfonamide], the 50% effective concentration (EC50) is 3 nM. Then `COc1cccc(OC)c1-n1c(NS(=O)(=O)[C@@H](C)[C@H](OC)c2ncc(Cl)cn2)nnc1[C@H]1CCCCO1` (single isomer, unassigned) [Example 83.0, (1R,2S)-1-(5-chloropyrimidin-2-yl)-N-(4-(2,6-dimethoxyphenyl)-5-((S)-tetrahydro-2H-pyran-2-yl)-4H-1,2,4-triazol-3-yl)-1-methoxypropane-2-sulfonamide or (1R,2S)-1-(5-chloropyrimidin-2-yl)-N-(4-(2,6-dimethoxyphenyl)-5-((R)-tetrahydro-2H-pyran-2-yl)-4H-1,2,4-triazol-3-yl)-1-methoxypropane-2-sulfonamide], with 10 nM; and `COc1cccc(OC)c1-n1c(NS(=O)(=O)[C@@H](C)[C@H](OC)c2ncc(Cl)cn2)nnc1[C@H]1CCCCO1` (single isomer, unassigned) [Example 84.0, (1R,2S)-1-(5-chloropyrimidin-2-yl)-N-(4-(2,6-dimethoxyphenyl)-5-((S)-tetrahydro-2H-pyran-2-yl)-4H-1,2,4-triazol-3-yl)-1-methoxypropane-2-sulfonamide or (1R,2S)-1-(5-chloropyrimidin-2-yl)-N-(4-(2,6-dimethoxyphenyl)-5-((R)-tetrahydro-2H-pyran-2-yl)-4H-1,2,4-triazol-3-yl)-1-methoxypropane-2-sulfonamide], with 0.8 nM. As to `COc1cccc(OC)c1-n1c(NS(=O)(=O)[C@@H](C)[C@H](C)c2ncc(C)cn2)nnc1[C@H]1CCCCO1` (single isomer, unassigned) [Example 85.0, (2S,3R)-N-(4-(2,6-dimethoxyphenyl)-5-((S)-tetrahydro-2H-pyran-2-yl)-4H-1,2,4-triazol-3-yl)-3-(5-methylpyrimidin-2-yl)butane-2-sulfonamide or (2S,3R)-N-(4-(2,6-dimethoxyphenyl)-5-((R)-tetrahydro-2H-pyran-2-yl)-4H-1,2,4-triazol-3-yl)-3-(5-methylpyrimidin-2-yl)butane-2-sulfonamide], the EC50 came out at 9.6 nM.

Regarding `COc1cccc(OC)c1-n1c(NS(=O)(=O)[C@@H](C)[C@H](C)c2ncc(C)cn2)nnc1[C@H]1CCCCO1` (single isomer, unassigned) [Example 86.0, (2S,3R)-N-(4-(2,6-dimethoxyphenyl)-5-((S)-tetrahydro-2H-pyran-2-yl)-4H-1,2,4-triazol-3-yl)-3-(5-methylpyrimidin-2-yl)butane-2-sulfonamide or (2S,3R)-N-(4-(2,6-dimethoxyphenyl)-5-((R)-tetrahydro-2H-pyran-2-yl)-4H-1,2,4-triazol-3-yl)-3-(5-methylpyrimidin-2-yl)butane-2-sulfonamide], the concentration giving a half-maximal response (EC50) was determined as 2.1 nM. With `COc1cccc(OC)c1-n1c(NS(=O)(=O)[C@@H](C)[C@H](C)c2ncc(Cl)cn2)nnc1[C@H]1CCCCO1` (single isomer, unassigned) [Example 87.0, (2S,3R)-3-(5-chloropyrimidin-2-yl)-N-(4-(2,6-dimethoxyphenyl)-5-((S)-tetrahydro-2H-pyran-2-yl)-4H-1,2,4-triazol-3-yl)butane-2-sulfonamide or (2S,3R)-3-(5-chloropyrimidin-2-yl)-N-(4-(2,6-dimethoxyphenyl)-5-((S)-tetrahydro-2H-pyran-2-yl)-4H-1,2,4-triazol-3-yl)butane-2-sulfonamide], the EC50 worked out at 2.4 nM. Then `COc1cccc(OC)c1-n1c(NS(=O)(=O)[C@@H](C)[C@H](C)c2ncc(Cl)cn2)nnc1[C@H]1CCCCO1` (single isomer, unassigned) [Example 88.0, (2S,3R)-3-(5-chloropyrimidin-2-yl)-N-(4-(2,6-dimethoxyphenyl)-5-((S)-tetrahydro-2H-pyran-2-yl)-4H-1,2,4-triazol-3-yl)butane-2-sulfonamide or (2S,3R)-3-(5-chloropyrimidin-2-yl)-N-(4-(2,6-dimethoxyphenyl)-5-((S)-tetrahydro-2H-pyran-2-yl)-4H-1,2,4-triazol-3-yl)butane-2-sulfonamide], with 0.42 nM; and `COc1cccc(OC)c1-n1c(NS(=O)(=O)[C@@H](C)[C@H](C)c2cnc(C)cn2)nnc1[C@H]1CCCO1` (single isomer, unassigned) [Example 89.0, (2S,3R)-N-(4-(2,6-dimethoxyphenyl)-5-((S)-tetrahydrofuran-2-yl)-4H-1,2,4-triazol-3-yl)-3-(5-methylpyrazin-2-yl)butane-2-sulfonamide or (2S,3R)-N-(4-(2,6-dimethoxyphenyl)-5-((R)-tetrahydrofuran-2-yl)-4H-1,2,4-triazol-3-yl)-3-(5-methylpyrazin-2-yl)butane-2-sulfonamide], with 23 nM; and `COc1cccc(OC)c1-n1c(NS(=O)(=O)[C@@H](C)[C@H](C)c2cnc(C)cn2)nnc1[C@H]1CCCO1` (single isomer, unassigned) [Example 90.0, (2S,3R)-N-(4-(2,6-dimethoxyphenyl)-5-((S)-tetrahydrofuran-2-yl)-4H-1,2,4-triazol-3-yl)-3-(5-methylpyrazin-2-yl)butane-2-sulfonamide or (2S,3R)-N-(4-(2,6-dimethoxyphenyl)-5-((R)-tetrahydrofuran-2-yl)-4H-1,2,4-triazol-3-yl)-3-(5-methylpyrazin-2-yl)butane-2-sulfonamide], with 370 nM.
